Patent publication US11028061B2, “Modulators of myocyte lipid accumulation and insulin resistance and methods of use thereof” (Sanford Burnham Prebys Medical Discovery Institute, priority 2015, dated 2021)
pEC50, pIC50: −log10 of the molar value.

Columns and labels:
MGAT1/2/3 = assay: Direct inhibition of MGAT1/2/3 activity; assay type: biochemical; conditions: data not shown
human skeletal myotubes [1] = assay: Cellular glucose uptake assay ([3H]-2-deoxyglucose); assay type: cell-based; conditions: 10 μM SBI-477, 24 hours
Protocol: After differentiation, primary human skeletal myotubes were incubated with the indicated concentration of SBI-477 for 24 hours and then treated with insulin (100 nM) for 30 minutes. Cells were washed in phosphate-buffered saline (PBS) three times at room temperature and then incubated with Krebs-Ringer HEPES buffer (140 mM NaCl, 5 mM KCl, 1 mM CaCl2, 2.5 mM MgSO4, 2.5 mM, NaH2PO4, 20 mM HEPES and 0.1% bovine serum albumin) containing [3H]-2-deoxyglucose (1.0 μCi/mL) for 15 min. Glucose uptake was terminated by washing five times with ice-cold PBS. The cells were then solubilized with 0.5N sodium hydroxide (NaOH). The amount of [3H]-2-deoxyglucose taken up was measured by liquid scintillation analyzer (PerkinElmer) and normalized to total protein.

DGAT1/2 = assay: Direct inhibition of DGAT1/2 activity; assay type: biochemical; conditions: data not shown
ARRDC4 = ARRDC4 expression by quantitative RT-PCR in human myotubes; assay type: cell-based; conditions: 24 hours
Protocol: FIGS. 4A-C show downregulation of TXNIP and ARRDC4 expression by SBI-477. (FIG. 4A) TXNIP and ARRDC4 mRNA levels as determined by quantitative RT-PCR in human myotubes treated with SBI-477 (10 μM) or DGAT1 inhibitor (DGATi, […]) for 24 hours in the absence or presence of 100 μM oleate (n=4). Expression is shown relative to vehicle/BSA treatment. (FIG. 4B) TXNIP gene expression following exposure to a dose range of SBI-477 for 24 hours (n=4). (FIG. 4C) Left, Effect of SBI-477 on TXNIP protein levels as determined by western blot analysis by SBI-477. Right, Quantitation of the TXNIP western blot data is shown (n=5). *p<0.05 vs. Vehicle/BSA control, †p<0.05 vs. Vehicle/oleate by one-way ANOVA with Bonferroni post hoc test. The data are shown as mean±SD.
(§1) Total RNA was isolated using RNeasy Mini Kit (Qiagen) according to the manufacturer's instructions. cDNA was synthesized using the Affinity Script cDNA Synthesis Kit (Stratagene) with 0.5 μg of total RNA. PCR reactions were performed in triplicate […] Roche LightCycler® 480 Instrument II) with specific primers for each gene.

[2] = Intracellular lipolysis rates; assay type: cell-based; conditions: data not shown
[3] = test system: fatty acid transporter, CD36; assay: CD36 gene expression; assay type: cell-based; conditions: data not shown
Protocol: as §1

[4] = test system: primary murine skeletal myocytes; assay: TAG accumulation in primary murine skeletal myocytes; assay type: cell-based; conditions: Mus musculus; primary murine skeletal myocytes; read-out: Activity Score (IC50), triacylglyceride (TAG) accumulation
human skeletal myotubes [5] = assay: Quantitative lipidomic analyses and TAG biosynthesis pathway modeling; assay type: cell-based; conditions: oleate-loaded myotubes
Protocol: Quantitative lipidomic analyses was performed on human skeletal myotubes exposed to bovine albumin serum (BSA) or 100 μM oleate in the presence of DMSO vehicle (white bars) or 10 μM SBI-477 (black bars) for 24 hours.
Primary human myotubes were treated with BSA or 100 μM oleate with 10 μM SBI-477 or a vehicle control for 24 hours. The cells were added to […] in an Eppendorf tube and homogenized for 1 minute using a disposable soft tissue homogenizer. A 25 μL aliquot was used to determine the protein content (BCA protein assay kit, Thermo Scientific, Rockford, Ill.). The remaining homogenate was accurately transferred into a disposable glass culture test tube, and a mixture of lipid internal standards was added prior to lipid extraction for quantification of all reported lipid species. Lipid extraction was performed by using a modified Bligh and Dyer procedure as described previously (Wang and Han, 2014). Each lipid extract was resuspended into a volume of 500 μL of chloroform/methanol (1:1, v/v) per mg of protein and flushed with nitrogen, capped, and stored at −20° C. for lipid analysis. For ESI direct infusion analysis, lipid extract was further diluted to a final concentration of ˜500 fmol/μL, and the mass spectrometric analysis was performed on a QqQ mass spectrometer (Thermo TSQ VANTAGE, San Jose, Calif.) equipped with an automated nanospray device (TriVersa NanoMate, Advion Bioscience Ltd., Ithaca, N.Y.).
Intracellular TAG can be formed through reacylation of DAG species generated from several pathways including a de novo glycerolphosphate biosynthetic pathway that involves dephosphorylation of phosphatidic acid (DAGPA), reacylation of monoacylglycerol (DAGMAG), and to a lesser extent, hydrolysis of phosphatidyl inositol (DAGPI). […] This approach uses the individual TAG ion profile, as determined by mass spectrometry, to predict the relative contribution of each pathway to the overall cellular TAG pool. […]

rat H9c2 myocytes = assay: Inhibition of TAG accumulation in rat H9c2 myocytes; assay type: cell-based; conditions: data not shown
MondoA = target: T1, MondoA (Homo sapiens, UniProt Q9HAP2); assay: ChIP of MondoA occupation on TXNIP and ARRDC4 promoter ChoREs; assay type: cell-based; conditions: human skeletal myotubes
T1 construct: Proteins were immunoprecipitated by using anti-MondoA (Bethyl Laboratories; catalog number A303-195A); endogenous in cells; host or cells: differentiated primary human skeletal myotubes
Protocol: ChIP assays were performed as previously described (Gan, et al., Genes Dev., 2011, 25(24):2619-2630). Briefly, differentiated human skeletal myotubes were cross-linked with 1% formaldehyde for 10 minutes at room temperature, and glycine was added to stop the cross-linking reaction. Cells were harvested and lysed. For chromatin fragmentation, sonication was performed using a Bioruptor (Diagenode). Proteins were immunoprecipitated by using anti-MondoA (Bethyl Laboratories; catalog number A303-195A) or IgG control (Sigma; catalog number 15006) overnight at 4° C. DNA fragments were purified using a QIAquick PCR purification kit (Qiagen) and quantified by a LightCycler® 480 Instrument II (Roche) with the specific primers listed in Table 1.

H9c2 myotubes = assay: Glycogen synthesis in H9c2 myotubes; assay type: cell-based, Rat

T1 sequence (Q9HAP2 2-919 limits assumed): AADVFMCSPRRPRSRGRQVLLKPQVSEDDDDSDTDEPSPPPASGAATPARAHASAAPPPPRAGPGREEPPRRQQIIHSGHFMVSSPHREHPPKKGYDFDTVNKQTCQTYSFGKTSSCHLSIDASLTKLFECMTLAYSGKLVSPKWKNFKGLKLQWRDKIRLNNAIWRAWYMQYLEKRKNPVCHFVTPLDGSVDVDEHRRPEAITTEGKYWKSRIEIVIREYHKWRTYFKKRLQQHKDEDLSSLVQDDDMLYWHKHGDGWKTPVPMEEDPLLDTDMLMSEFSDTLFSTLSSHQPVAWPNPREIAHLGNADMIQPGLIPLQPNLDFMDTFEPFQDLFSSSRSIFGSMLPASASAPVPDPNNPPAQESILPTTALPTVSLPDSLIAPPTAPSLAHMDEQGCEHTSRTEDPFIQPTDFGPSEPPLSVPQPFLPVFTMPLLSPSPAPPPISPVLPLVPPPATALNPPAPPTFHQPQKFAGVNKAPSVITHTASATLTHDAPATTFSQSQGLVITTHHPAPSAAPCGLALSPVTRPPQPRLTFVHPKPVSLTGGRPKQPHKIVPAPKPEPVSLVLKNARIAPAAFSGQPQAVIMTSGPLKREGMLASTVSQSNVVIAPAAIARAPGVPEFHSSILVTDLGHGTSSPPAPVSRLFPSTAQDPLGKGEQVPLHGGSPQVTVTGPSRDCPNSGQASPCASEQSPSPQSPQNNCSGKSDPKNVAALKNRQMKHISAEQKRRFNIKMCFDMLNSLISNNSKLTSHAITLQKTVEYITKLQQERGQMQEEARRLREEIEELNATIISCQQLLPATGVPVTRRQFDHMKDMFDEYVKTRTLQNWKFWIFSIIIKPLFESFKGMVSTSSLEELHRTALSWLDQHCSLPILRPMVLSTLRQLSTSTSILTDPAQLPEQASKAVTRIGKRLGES

pIC50 [4]: > 6.00 | pEC50 (rat H9c2 myocytes): ~7.00 | Occupation by MondoA of ChoREs in TXNIP and ARRDC4 promoter regions (MondoA): inhibited
SMILES: COc1ccc(-c2csc(NC(=O)c3ccc(OCC(=O)N4CCOCC4)c(OC)c3)n2)cc1 [Cpd. 7, 3-methoxy-N-(4-(4-methoxyphenyl)thiazol-2-yl)-4-(2-morpholino-2-oxoethoxy)benzamide]
Direct inhibition of MGAT1/2/3 activity (MGAT1/2/3): not found that SBI-477 directly inhibits | Increase of basal and insulin stimulated glucose uptake (human skeletal myotubes [1]): approximately 84% | Direct inhibition of DGAT1/2 activity (DGAT1/2): not found that SBI-477 directly inhibits | ARRDC4 expression (ARRDC4): robust, dose-dependent downregulation | Intracellular lipolysis rates [2]: not due to blocking cellular fatty acid uptake or increasing intracellular lipolysis rates | Gene expression of CD36 [3]: no effect | Levels of ceramide and total sphingomyelin (human skeletal myotubes [5]): not significantly altered | DAG species levels (human skeletal myotubes [5]; 24 hour exposure): reduced | TAG species levels (human skeletal myotubes [5]; 24 hour exposure): reducing all TAG species measured | Insulin-stimulated glycogen synthesis compared to vehicle (H9c2 myotubes): increased insulin-stimulated glycogen synthesis
